Data published in patent US20130102624A1 (priority 2011, published 2013).

Legend:
[1] = urinary excretion of thiamine metabolites TMA and PMA and TMA/PMA ratio (LC-MS/MS of urine)
[2] = in vivo; cited from earlier work

Row | SMILES | Urinary excretion rate at lowest point during fasting ([1]; human) [nmol/h] | Oral bioavailability [2] | TMA/PMA ratio relative to its typical fasting value (transient reduction) ([1]; consumption of thiamine after a period of induced deficiency) | Ratio of TMA to PMA (TMA/PMA) in urine ([1]; human, following consumption of thiamine (100 mg) after fast and sucrose)
1 | Cc1ncc(CO)c(N)n1 [PMA] | 0.07 |  |  | 
2 | Cc1ncsc1CCO [TMA] | 0.06 |  |  | 
3 | Cc1ncc(C[n+]2csc(CCO)c2C)c(N)n1 [thiamine] |  | poor | less than 20% | 0.12
